This is an account of results in publication PMC4912077 (PLoS ONE, 2016).

Molecules are shown by their SMILES. Entries after “also recorded” stand apart in the source; their conditions may differ. Where two headings read alike, the source gives them in different places. Bounds are passed on as bounds.

One assay relates to AMPA receptor. Put plainly: AMPA receptor-mediated fEPSP in hippocampal slices (2-MXP selectivity). The format is cell-based, rat. As to the method:
(§1) Male Wistar rats (Crl:Wi; Charles River, UK) aged 9–10 wk were sacrificed by neck vertebral dislocation (schedule 1 method) according to the United Kingdom (Scientific Procedures) Act of 1986. […] The brain was cut parasagittally into 400 μm sections and hippocampal slices were removed, stored and placed in a submerged recording chamber at 28–30°C. Recordings of synaptic activity were made, analyzed and presented as described. A bipolar electrode was used to deliver stimuli (0.03 Hz) to the Schaffer collateral pathway to enable recording of field excitatory synaptic potentials (fEPSPs) using a glass microelectrode positioned in the stratum radiatum of area CA1. […] After 30 min of stable control responses, 1 and 10 μM solutions of the individual compounds were added to the perfusate for 3–12 h while recording the amplitude and area of the NMDAR-fEPSP on-line using WinLTP [31]. Single exponential curves were fitted to the graphs and curves extrapolated to show likely half-times and minimum plateau responses achieved with each concentration of the compounds. Raw data for all fEPSP experiments are provided as supporting information (S2, S3 and S4 Files).
To examine the specificity of DPH analogues, 2-MXP was superfused at 50 (n = 2) and 100 μM (n = 1) in the absence of AMPA and GABA receptor antagonists (Fig 3C).

The target in a further assay is T1, Alpha2C (Homo sapiens, UniProt P18825).
T1 sequence (P18825 1-462): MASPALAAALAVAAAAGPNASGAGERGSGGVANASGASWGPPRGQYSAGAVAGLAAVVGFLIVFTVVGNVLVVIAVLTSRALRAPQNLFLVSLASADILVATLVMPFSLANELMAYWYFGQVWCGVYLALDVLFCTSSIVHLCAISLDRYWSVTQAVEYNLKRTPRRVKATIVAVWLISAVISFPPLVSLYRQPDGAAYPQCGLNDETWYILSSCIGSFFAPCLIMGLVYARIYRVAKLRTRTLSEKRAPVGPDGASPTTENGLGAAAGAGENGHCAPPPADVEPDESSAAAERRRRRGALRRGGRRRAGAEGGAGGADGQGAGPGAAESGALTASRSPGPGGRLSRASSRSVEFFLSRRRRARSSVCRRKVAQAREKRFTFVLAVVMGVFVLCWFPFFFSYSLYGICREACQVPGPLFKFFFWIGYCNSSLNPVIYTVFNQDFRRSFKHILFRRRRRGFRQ
Put plainly: NIMH PDSP radioligand binding, Alpha2C. As to the method: (§2) Radioligands and concentrations used for additional 45 CNS receptor binding assays are listed as supporting information (S1 Table). This work was performed by the National Institute of Mental Health Psychoactive Drug Screening Program (NIMH PDSP) as described previously.[26] Briefly target compounds were dissolved in DMSO and subjected to a primary screen at 10,000 nM concentration. […] Additional experimental details are available in the NIMH PDSP assay protocol book.

The next assay concerns the target Alpha2A (Homo sapiens, UniProt P08913). The assay is described as follows: NIMH PDSP radioligand binding, Alpha2A. As to the method: as §2
The next assay concerns NMDA receptor. The assay is described as follows: NMDA receptor-mediated fEPSP (NMDAR-fEPSP) in CA1 of hippocampal slices. The format is cell-based, rat. To be noted: 10 μM. As to the method:
as §1

The test system of the next assay is Sprague–Dawley rats. Put plainly: Pre-pulse inhibition (PPI) of acoustic startle in rats. It is filed as in vivo, rat. To be noted: for ED50: sc, rat, subcutaneous, read-out: ED50 for reduction of average PPI. How it is done:
Male Sprague–Dawley rats from Harlan Industries (Indianapolis, IN, USA; initial weight 250–275 g) were housed in pairs under a 12-h reverse light/dark cycle (lights off at 0700 h). Use of a reversed light/dark cycle allows behavioral testing to be conducted during the awake phase of the light/dark cycle. Food and water were available ad libitum. Animals were acclimatized for approximately 1 wk after arrival prior to behavioral testing and maintained in Association for Assessment and Accreditation of Laboratory Animal Care (AAALAC)-approved facilities that meet all federal and state guidelines. Procedures were approved by the University of California San Diego institutional animal care and use committee. Principles of laboratory animal care were followed.
DPH hydrochloride and 2-MXP hydrochloride were dissolved in water containing 5% Tween-80 and administered subcutaneously, 10-min prior to the start of the startle test session. The injection volume was 1 ml/kg.
Eight startle chambers (SR-LAB system, San Diego Instruments, San Diego, CA, USA) were used to measure startle reactivity in rats. The startle test chambers were sound-attenuated, lighted, and ventilated enclosures containing a clear nonrestrictive cylindrical Plexiglas stabilimeter, 8.2 cm in diameter. A high-frequency loudspeaker mounted 24 cm above the Plexiglas cylinder produced all acoustic stimuli. The peak and average amplitudes of the startle response were detected by a piezoelectric accelerometer. At the onset of the startling stimulus, 100 1-ms readings were recorded, and the average amplitude was used to determine the magnitude of the startle response (measured in arbitrary units).
Acoustic startle test sessions consisted of startle trials (pulse-alone) and prepulse trials (prepulse + pulse). The pulse-alone trial consisted of a 40-ms 120-dB pulse of broadband white noise. Prepulse + pulse trials consisted of a 20-ms acoustic prepulse, an 80-ms delay, and then a 40-ms 120-dB startle pulse (100-ms onset–onset). There was an average of 15 s (range = 6–22 s) between trials. During each inter-trial interval, the movements of the animals were recorded once to measure response when no stimulus was present (data not shown). Each startle session began with a 5 min acclimation period to a 65-dB broadband noise that was present continuously throughout the session. One week after arrival, animals were tested in a brief baseline startle/PPI session to create treatment groups matched for levels of startle and PPI. The startle test session contained 12 pulse-alone trials and 36 prepulse + pulse trials (12 prepulses each of 68-, 71-, and 77-dB [equivalent to 3-, 6-, and 12-dB above background]) presented in a pseudo-randomized order. Six pulse-alone trials were presented at the beginning and the end of the test session but were not used in the calculation of PPI values. Raw data for all PPI experiments are provided as supporting information (S5 File).
The amount of PPI was calculated as a percentage score for each prepulse + pulse trial type: %PPI = 100−{[(startle response for prepulse + pulse trial)/(startle response for pulse-alone trial)] × 100}. Startle magnitude was calculated as the average response to all of the pulse-alone trials. PPI data were analyzed with two-factor analysis of variance (ANOVA) with treatment as the between-subjects factor and trial type (prepulse intensity) as a repeated measure. For experiments in which there was no significant interaction between drug and prepulse intensity, PPI data were collapsed across prepulse intensity and average PPI was used as the main dependent measure. ED50 values were calculated using nonlinear regression. Startle magnitude data were analyzed with one-factor ANOVA. Post-hoc analyses were performed using Tukey’s studentized range method. The alpha level was set at 0.05.

In the next assay the target is M1 (Homo sapiens, UniProt P11229). The assay is described as follows: NIMH PDSP radioligand binding, M1.
The target in another assay is NET (Homo sapiens, UniProt P23975). Put plainly: NIMH PDSP radioligand binding, NET. As to the method:
as §2

Another assay addresses Alpha2B (Homo sapiens, UniProt P18089). The assay is described as follows: NIMH PDSP radioligand binding, Alpha2B. As to the method: as §2

M1, sequence (P11229 whole entry): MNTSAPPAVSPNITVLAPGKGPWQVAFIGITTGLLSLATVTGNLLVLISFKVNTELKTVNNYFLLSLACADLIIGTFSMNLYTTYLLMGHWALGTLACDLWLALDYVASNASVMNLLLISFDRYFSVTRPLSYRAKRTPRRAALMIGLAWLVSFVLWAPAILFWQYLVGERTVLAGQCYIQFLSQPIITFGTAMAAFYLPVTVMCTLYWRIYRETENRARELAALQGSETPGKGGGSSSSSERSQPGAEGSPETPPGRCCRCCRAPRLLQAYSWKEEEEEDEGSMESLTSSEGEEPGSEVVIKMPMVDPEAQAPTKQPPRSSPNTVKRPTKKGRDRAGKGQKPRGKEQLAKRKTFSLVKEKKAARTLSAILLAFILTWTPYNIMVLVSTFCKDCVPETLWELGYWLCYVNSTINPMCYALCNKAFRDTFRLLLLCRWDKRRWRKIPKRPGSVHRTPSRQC
Alpha2A, sequence (P08913 whole entry): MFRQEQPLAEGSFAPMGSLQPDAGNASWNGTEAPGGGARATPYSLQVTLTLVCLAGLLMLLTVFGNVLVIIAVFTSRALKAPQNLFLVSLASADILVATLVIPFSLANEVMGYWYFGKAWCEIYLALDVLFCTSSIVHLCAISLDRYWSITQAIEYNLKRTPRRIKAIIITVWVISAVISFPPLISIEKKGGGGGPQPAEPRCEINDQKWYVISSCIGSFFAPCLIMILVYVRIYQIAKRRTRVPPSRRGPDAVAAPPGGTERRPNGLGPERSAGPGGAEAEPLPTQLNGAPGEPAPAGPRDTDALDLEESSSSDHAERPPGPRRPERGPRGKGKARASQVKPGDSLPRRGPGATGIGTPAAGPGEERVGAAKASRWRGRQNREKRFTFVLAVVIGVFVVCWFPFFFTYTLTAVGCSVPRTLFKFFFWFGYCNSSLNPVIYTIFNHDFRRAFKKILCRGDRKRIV
Alpha2B, sequence (P18089 whole entry): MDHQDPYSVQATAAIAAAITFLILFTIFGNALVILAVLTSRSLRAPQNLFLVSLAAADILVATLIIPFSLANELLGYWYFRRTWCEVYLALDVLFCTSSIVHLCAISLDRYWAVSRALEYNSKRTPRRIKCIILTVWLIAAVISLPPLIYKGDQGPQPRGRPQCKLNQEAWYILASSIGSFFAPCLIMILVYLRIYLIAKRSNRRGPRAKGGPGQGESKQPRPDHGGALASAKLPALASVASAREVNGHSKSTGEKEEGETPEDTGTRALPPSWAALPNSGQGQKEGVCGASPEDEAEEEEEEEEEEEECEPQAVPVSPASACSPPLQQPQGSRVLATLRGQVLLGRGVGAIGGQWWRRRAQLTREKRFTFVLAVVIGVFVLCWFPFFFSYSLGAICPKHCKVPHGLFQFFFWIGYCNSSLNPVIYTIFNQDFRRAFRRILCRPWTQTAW
NET, sequence (P23975 whole entry): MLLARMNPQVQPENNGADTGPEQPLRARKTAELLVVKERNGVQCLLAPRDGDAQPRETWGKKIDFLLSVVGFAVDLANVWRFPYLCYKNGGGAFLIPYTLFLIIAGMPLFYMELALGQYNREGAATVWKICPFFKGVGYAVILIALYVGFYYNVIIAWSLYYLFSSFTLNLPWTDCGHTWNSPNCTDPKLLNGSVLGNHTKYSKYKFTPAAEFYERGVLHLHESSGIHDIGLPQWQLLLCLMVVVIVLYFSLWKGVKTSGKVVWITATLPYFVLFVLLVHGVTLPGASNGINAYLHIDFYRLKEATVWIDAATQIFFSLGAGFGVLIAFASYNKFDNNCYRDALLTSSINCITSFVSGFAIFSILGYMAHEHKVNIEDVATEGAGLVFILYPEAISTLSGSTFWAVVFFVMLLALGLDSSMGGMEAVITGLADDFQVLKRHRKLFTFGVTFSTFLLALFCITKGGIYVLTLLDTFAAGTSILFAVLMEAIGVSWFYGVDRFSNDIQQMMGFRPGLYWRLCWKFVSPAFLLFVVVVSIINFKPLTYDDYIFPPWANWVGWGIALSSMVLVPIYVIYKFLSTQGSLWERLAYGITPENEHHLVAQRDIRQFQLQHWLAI

In general, Ki refers to the equilibrium dissociation constant of an inhibitor or competing ligand from its target. A high value points to lower affinity. For the compound `COc1ccccc1C(Cc1ccccc1)N1CCCCC1` (stereo not drawn) [2-MXP, 2-methoxydiphenidine], the “effect on AMPA receptor-mediated fEPSP” value with AMPA receptor (50 and 100 μM, without AMPA and GABA receptor antagonists) is “No reduction of the AMPA receptor-mediated fEPSP was seen”. Besides, the “potency as antagonist of NMDAR relative to AMPA receptor responses” value with AMPA receptor (hippocampal slices) is given as over 50 times. Besides, the Ki at Alpha2C was 1.94 µM; at Alpha2A, 2 µM. In the assay with NMDA receptor, the “effect on NMDAR-fEPSP” value is reported as “abolished”. The figures for the “effect on PPI” value in the assay with Sprague–Dawley rats (20 mg/kg s.c.) and in the assay on Sprague–Dawley rats (doses up to 10 mg/kg s.c.) were “did disrupt PPI; also recorded: significant inhibition of PPI” and “did not alter PPI”, respectively.
Broadly, the ED50 is the midpoint of the dose-response relation. Regarding `c1ccc(CC(c2ccccc2)N2CCCCC2)cc1` (stereo not drawn) [DPH, diphenidine], the Ki on M1 worked out at 2.65 µM; at NET it was 2.81 µM; on Alpha2C it was 3.05 µM; on Alpha2B, 4.38 µM. Moreover, the “effect on average PPI” value in the assay with Sprague–Dawley rats (10 mg/kg s.c., first dose-response experiment) is listed as “significantly reduced average PPI”. The “effect on PPI” value with Sprague–Dawley rats (10, 20 and 30 mg/kg s.c., second experiment) is reported as “reduced PPI at all three prepulse intensities”. Besides, the figures for the ED50 with Sprague–Dawley rats (10 min before test) and in the assay with Sprague–Dawley rats (95% CI in parentheses) were 9.5 mg/kg and 31.5 µmol/kg, respectively.
